From patent publication US20240246967A1, “AXL COMPOUNDS” (ARCUS BIOSCIENCES, INC., priority 2021, published 2024)

Target: T1, Axl (Homo sapiens, UniProt P30530)
T1 sequence (P30530 26-894): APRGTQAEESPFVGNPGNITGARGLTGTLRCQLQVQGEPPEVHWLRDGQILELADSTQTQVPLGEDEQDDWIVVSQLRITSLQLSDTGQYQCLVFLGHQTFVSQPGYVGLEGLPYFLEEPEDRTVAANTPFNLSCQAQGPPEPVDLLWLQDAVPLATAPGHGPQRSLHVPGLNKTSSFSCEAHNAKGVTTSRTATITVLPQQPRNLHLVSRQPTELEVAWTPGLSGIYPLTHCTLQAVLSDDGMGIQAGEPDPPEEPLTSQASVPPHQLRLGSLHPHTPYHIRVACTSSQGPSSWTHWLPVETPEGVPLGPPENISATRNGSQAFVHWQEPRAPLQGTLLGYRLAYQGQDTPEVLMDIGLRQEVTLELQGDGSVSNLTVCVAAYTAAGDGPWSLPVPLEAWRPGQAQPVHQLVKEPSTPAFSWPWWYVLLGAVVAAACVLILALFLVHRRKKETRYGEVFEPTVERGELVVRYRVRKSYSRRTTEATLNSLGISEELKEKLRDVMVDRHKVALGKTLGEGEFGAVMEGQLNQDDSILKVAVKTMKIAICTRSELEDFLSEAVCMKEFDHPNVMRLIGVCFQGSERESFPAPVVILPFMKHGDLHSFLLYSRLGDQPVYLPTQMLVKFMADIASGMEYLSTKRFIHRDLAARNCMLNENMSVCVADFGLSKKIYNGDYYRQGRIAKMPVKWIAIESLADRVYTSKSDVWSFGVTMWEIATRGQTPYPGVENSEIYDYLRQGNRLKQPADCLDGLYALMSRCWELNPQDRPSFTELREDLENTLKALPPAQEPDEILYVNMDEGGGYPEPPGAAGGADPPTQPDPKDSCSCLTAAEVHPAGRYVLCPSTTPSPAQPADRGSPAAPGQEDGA
Test: Axl NanoBRET intracellular kinase assay (intracellular binding, Cell Binding)
Parameters: host or cells: HEK-293
Conditions: HEK-293 cells transfected with Axl-NanoLuc fusion vector; 0.35 μM K-5 NanoBRET tracer
In short: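 BRET ratio (610 nm/450 nm) decrease from K-5 tracer displacement gave binding; IC50 by 4-parameter non-linear regression of percent activity. Live HEK-293 cells expressed transiently transfected Axl-NanoLuc. Compound 1 h, then 0.35 μM tracer 2 h, both 37 °C, 5% CO2.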

Structure (SMILES) | IC50
O=C1OCCN1c1ccc(-c2n[nH]c3ncc(-c4ccc5c(c4)CC[C@@H](N4C6COCC4C6)CC5)cc23)cc1 [Example 121, 3-(4-{5-[(7S)-7-{3-oxa-6-azabicyclo[3.1.1]heptan-6-yl}-6,7,8,9-tetrahydro-5H-benzo[7]annulen-2-yl]-2H-pyrazolo[3,4-b]pyridin-3-yl}phenyl)-1,3-oxazolidin-2-one] | < 0.1 µM
O=C1CCCN1c1ccc(-c2n[nH]c3ncc(-c4ccc5c(c4)CC[C@@H](N4C6COCC4C6)CC5)cc23)cc1 [Example 122, 1-(4-{5-[(7S)-7-{3-oxa-6-azabicyclo[3.1.1]heptan-6-yl}-6,7,8,9-tetrahydro-5H-benzo[7]annulen-2-yl]-2H-pyrazolo[3,4-b]pyridin-3-yl}phenyl)pyrrolidin-2-one] | < 0.1 µM
COCCOc1ccc(-c2n[nH]c3ncc(-c4ccc5c(c4)CC[C@@H](N4C6COCC4C6)CC5)cc23)cc1 [Example 123, 6-[(7S)-2-{3-[4-(2-methoxyethoxy)phenyl]-2H-pyrazolo[3,4-b]pyridin-5-yl}-6,7,8,9-tetrahydro-5H-benzo[7]annulen-7-yl]-3-oxa-6-azabicyclo[3.1.1]heptane] | < 0.1 µM
CC(C)(C)S(=O)(=O)c1ccc(-c2n[nH]c3ncc(-c4ccc5c(c4)CC[C@@H](N4C6COCC4C6)CC5)cc23)cc1 [Example 124, 6-[(7S)-2-{3-[4-(2-methylpropane-2-sulfonyl)phenyl]-2H-pyrazolo[3,4-b]pyridin-5-yl}-6,7,8,9-tetrahydro-5H-benzo[7]annulen-7-yl]-3-oxa-6-azabicyclo[3.1.1]heptane] | < 0.1 µM
CN(C)C(=O)c1ccc(-c2n[nH]c3ncc(-c4ccc5c(c4)CC[C@@H](N4C6COCC4C6)CC5)cc23)cc1 [Example 125, N,N-Dimethyl-4-{5-[(7S)-7-{3-oxa-6-azabicyclo[3.1.1]heptan-6-yl}-6,7,8,9-tetrahydro-5H-benzo[7]annulen-2-yl]-2H-pyrazolo[3,4-b]pyridin-3-yl}benzamide] | < 0.1 µM
c1cc2c(cc1-c1cnc3[nH]nc(-c4ccc(N5C[C@H]6C[C@@H]5CO6)cc4)c3c1)CC[C@@H](N1C3COCC1C3)CC2 [Example 126, (1R,4R)-5-(4-{5-[(7S)-7-{3-oxa-6-azabicyclo[3.1.1]heptan-6-yl}-6,7,8,9-tetrahydro-5H-benzo[7]annulen-2-yl]-2H-pyrazolo[3,4-b]pyridin-3-yl}phenyl)-2-oxa-5-azabicyclo[2.2.1]heptane] | 0.1 to 1 µM
FC1CN(c2ccc(-c3c[nH]c4ncc(-c5ccc6c(c5)CC[C@@H](N5C7COCC5C7)CC6)cc34)cc2)C1 [Example 127, 6-[(7S)-2-{3-[4-(3-fluoroazetidin-1-yl)phenyl]-1H-pyrrolo[2,3-b]pyridin-5-yl}-6,7,8,9-tetrahydro-5H-benzo[7]annulen-7-yl]-3-oxa-6-azabicyclo[3.1.1]heptane] | < 0.1 µM
